Reference: ChEMBL document CHEMBL4251547, “The discovery of a pan-genotypic, primer grip inhibitor of HCV NS5B polymerase” (Medchemcomm, 2017)

Experiments:
[1] = Cmax in rat at 6 mg/kg, po; format: ADME, organism-based; set-up: dose 6 mg/kg, route oral; conditions: in vivo
[2] = AUC in cynomolgus monkey at 3 mg/kg, po; format: ADME, organism-based, Macaca fascicularis; conditions: in vivo
Canis familiaris [3] = assay: Oral bioavailability in dog at 3 mg/kg; format: ADME, organism-based, Canis lupus familiaris; conditions: in vivo
Canis familiaris [4] = assay: AUC in dog at 3 mg/kg, po; format: ADME, organism-based, Canis lupus familiaris; conditions: in vivo
[5] = Oral bioavailability in cynomolgus monkey at 3 mg/kg; format: ADME, organism-based, Macaca fascicularis; conditions: in vivo
[6] = Plasma concentration in rat at 6 mg/kg, po after 24 hrs; format: ADME, organism-based
[7] = (§1) Oral bioavailability in rat at 6 mg/kg; format: ADME, organism-based; conditions: in vivo
[8] = Cmax in rat at 2 mg/kg, iv; format: ADME, organism-based; set-up: dose 2 mg/kg, route intravenous; conditions: in vivo
[9] = AUC in rat at 6 mg/kg, po; format: ADME, organism-based; conditions: in vivo
[10] = Volume of distribution at steady state in cynomolgus monkey at 1 mg/kg, iv or 3 mg/kg, po; format: ADME, organism-based, Macaca fascicularis; conditions: in vivo, read-out: Vdss
[11] = Volume of distribution at steady state in dog at 1 mg/kg, iv or 3 mg/kg, po; format: ADME, organism-based, Canis lupus familiaris; conditions: in vivo, read-out: Vdss
[12] = Volume of distribution at steady state in rat at 2 mg/kg, iv or 6 mg/kg, po; format: ADME, organism-based; conditions: in vivo, read-out: Vdss
Rattus norvegicus = assay: as §1; format: ADME, organism-based; conditions: in vivo
[13] = Drug uptake in rat liver at 6 mg/kg, po after 24 hrs; format: ADME, organism-based; conditions: read-out: Drug uptake
[14] = Drug uptake in rat liver at 6 mg/kg, po after 48 hrs; format: ADME, organism-based; conditions: read-out: Drug uptake

| Cmax [1] [nM] | AUC [2] [µM·h] | F (Canis familiaris [3]) [%] | AUC (Canis familiaris [4]) [µM·h] | bioavailability [5] [%] | concentration at 24 h [6] [nM] | bioavailability [7] [%] | Cmax [8] [nM] | AUC [9] [µM·h] | Vd [10] [L/kg] | Vd [11] [L/kg] | Vd [12] [L/kg] | F (Rattus norvegicus) [%] | concentration at 24 h [13] [nM] | concentration at 48 h [14] [nM] | SMILES |
| --- | --- | --- | --- | --- | --- | --- | --- | --- | --- | --- | --- | --- | --- | --- | --- |
| 1100 | 8.3 | 85 | 25 | 61 | 150 | 58 | 1700 | 0.15 to 13 | 2.8 | 3.3 | 5.6 | – | – | – | CNC(=O)c1c(-c2ccc(F)cc2)oc2nc(CCC(F)(F)F)c(-c3cccc(C(=O)NC(C)(C)c4ncon4)c3)cc12 |
| 600 | – | – | – | – | 39 | – | 2500 | – | – | – | – | 31 | – | – | CNC(=O)c1c(-c2ccc(F)cc2)oc2nc(NCC(F)(F)F)c(-c3cccc(C(=O)NC(C)(C)c4ncon4)c3)cc12 |
| 600 | – | – | – | – | 560 | 64 | 1700 | 18 | – | – | – | – | 1600 | – | CCNc1nc2oc(-c3ccc(F)cc3)c(C(=O)NC)c2cc1-c1cccc(C(=O)NC(C)(C)C)c1 |
| 900 | – | – | – | – | 160 | 44 | 3200 | 10 | – | – | – | – | 900 | 820 | CNC(=O)c1c(-c2ccc(F)cc2)oc2nc(CCC(F)(F)F)c(-c3cccc(C(=O)NC45CC(C4)C5)c3)cc12 |
